Experimental findings from PubChem BioAssay AID1159559 (GlaxoSmithKline (GSK), 2015) are described below.

For the test, the system named is T. cruzi Tulahuen in NIH-3T3, beta-gal fluorescence, 4 d. The test is described as follows: T. cruzi intracellular growth inhibition, cell-based (AID 1159559).

Each structure is given as a SMILES string. Activity calls are given as the source filed them.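 The calls were made as follows: active = compounds whose IC50 against parasite growth in infected mouse cells is below 50000 nM; inactive = the rest.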 Where only a bound is given, the exact number is not on record here.

For the molecule `COCCn1c(-c2ccc3c(c2)OCO3)cnc1NCc1ccccc1OC`, the IC50 is 7.9 µM.

In the case of `CC(=O)Nc1ccc(-c2cnc(N)c(-c3nc4ccc(F)cc4[nH]3)c2)cc1`, the IC50 is 0.63 µM.

Take `N#Cc1ccc(C(=O)Nc2cccc(-c3cccc(CN4CCC(O)CC4)c3)c2)cc1`: the IC50 was 5 µM.

With `O=C(CN(Cc1ccccn1)Cc1ccccn1)NCc1ccc(-c2csnn2)cc1`, the IC50 is 4 µM.

On to `N#Cc1ccc(Br)cc1[N+](=O)[O-]`, for which the IC50 was 0.25 µM.

For `Cc1occc1C(=O)Nc1ccccc1C(=O)Nc1nccs1`, the IC50 is > 50 µM (inactive).

Turning to `Cc1ccc(S(=O)(=O)Cn2nnnc2C(c2cccnc2)N2CCN(c3ccccc3)CC2)cc1` (stereo not drawn), the IC50 is 0.5 µM.

As to `Cc1cc(Br)cc(C(=O)c2c(C(C)C)c(=O)[nH]c(=O)n2Cc2ccnc(N)c2)c1`, the IC50 was 0.4 µM.

For the molecule `O=C(Nc1ccc(C(F)(F)F)cc1)NC1(C(=O)NCc2ccco2)CCCCC1`, the IC50 is 7.9 µM.

In the case of `COc1ccc([N+](=O)[O-])cc1NC(=O)Nc1cccc(Cl)c1`, the IC50 is 0.79 µM.

For `CCN(Cc1cccs1)C(=O)CSc1nnc(-c2ccc3c(c2)OCO3)o1`, the IC50 is 4 µM.

Regarding `CS(=O)(=O)NC1CCC(Nc2ncc(Br)c(Nc3ccccc3C(N)=O)n2)CC1` (stereo not drawn), the IC50 was 7.9 µM.

For the molecule `CCCn1c(NC(=O)CCn2cc(Br)cn2)nc2ccccc21`, the IC50 was 5 µM.

On to `O=C(Nc1nc(-c2ccccn2)cs1)c1ccc(S(=O)(=O)N2CCCCC2)cc1`, for which the IC50 was 0.63 µM.

`Cn1c(CN2CCN(c3ncc(C(F)(F)F)cc3Cl)CC2)nc2ccncc21`: the IC50 is 0.79 µM.

On to `NCc1csc(Nc2cc(Oc3ccccc3)ncn2)n1`, for which the IC50 was 32 µM.

For the molecule `Clc1ccc(OCCN2CCCCC2c2cccnc2)c(Cl)c1` (stereo not drawn), the IC50 is 0.4 µM.

As for `CC(C)c1sc(Cl)nc1C(=O)NCCc1nc(C(=O)Nc2ccc3c(c2)OCO3)cs1`, the IC50 is 4 µM.

Regarding `CCN(C)Cc1ccc(N2CCC(NS(=O)(=O)c3ccc4c(c3)CCO4)CC2)nc1`, the IC50 is 0.63 µM.

Turning to `C[C@@H](Oc1cc(-n2cnc3ccc(CC(O)CO)cc32)sc1C(N)=O)c1ccccc1Cl` (stereo partly drawn), the IC50 is 3.2 µM.

As for `O=C(NCc1ccc(Cl)cc1)C1CN(C(=O)c2ccc(F)cc2)CCS1` (stereo not drawn), the IC50 was 25 µM.

Take `CC(C)(C)C(Cn1ccnc1)NC(=O)c1ccc2nc(C3CC3)oc2c1` (stereo not drawn): the IC50 is 0.1 µM.

Take `COc1ccc(NS(=O)(=O)c2cc(NC(=O)Cc3ccc(C)cc3)ccc2N2CCOCC2)cc1`: the IC50 is 2 µM.

`COc1cc(Cl)c(C)cc1NC(=O)c1ccc([N+](=O)[O-])s1`: the IC50 is 0.63 µM.

For the molecule `OC[C@@H](Nc1nccc(-c2c(-c3ccc(F)cc3)ncn2C2CCNCC2)n1)c1ccccc1`, the IC50 is 32 µM.

As to `Cc1ccc(NC(=O)c2ccc([N+](=O)[O-])s2)cc1S(=O)(=O)N1CCOCC1`, the IC50 is 0.2 µM.

Turning to `CCC(CC)C(=O)Nc1cccc(C(=O)Nc2nnc(C3CCCCC3)s2)c1`, the IC50 is 10 µM.

Regarding `O=C(c1ccccc1)N1CCC(C(=O)N2CCC(Oc3ccccc3Cl)CC2)CC1`, the IC50 was 2 µM.

With `O=C(CN1CCC2(O)CCCCC2C1c1ccc2c(c1)OCO2)Nc1ccc(Cl)cc1Cl` (stereo not drawn), the IC50 is 13 µM.

With `Cc1ccc2ccc(C(Nc3ccccn3)c3cccnc3)c(O)c2n1` (stereo not drawn), the IC50 was 0.5 µM.

Turning to `CCc1cccc(CC)c1-n1c(SCC(=O)N2CC(=O)Nc3ccccc32)nnc1-c1cccnc1`, the IC50 is 25 µM.

As for `COc1ncc(-c2ccc3ncnc(N4CCOCC4)c3c2)cc1NS(C)(=O)=O`, the IC50 is 0.5 µM.

For the molecule `O=C(Nc1nc(-c2ccc(F)cc2)cs1)c1ccc([N+](=O)[O-])s1`, the IC50 was 0.2 µM.

For the molecule `CCn1c(-c2nonc2N)nc2c([C@@H](C)O)ncc(O[C@H](CN)c3ccccc3)c21`, the IC50 is 7.9 µM.

`Cc1cc(C)n(-c2nc(NC(C)(C)C)nc(N3CCOCC3)n2)n1`: the IC50 was 5 µM.

`O=C(Cn1cnc2c(-c3ccccc3)csc2c1=O)N1CCCCC1`: the half-maximal inhibitory concentration (IC50) was 3.2 µM.

With `c1ccc2sc(Nc3nc4ncccc4[nH]3)nc2c1`, the IC50 is 1 µM.

Regarding `COc1ncc(-c2ccc3nccc(-c4ccncc4)c3c2)cc1NS(C)(=O)=O`, the IC50 was 1.6 µM.

Regarding `CS(=O)(=O)c1cccc(-c2cnc(N)c3c(-c4ccc(CO)cc4)csc23)c1`, the IC50 is 0.79 µM.

For `COc1ccc2ncc(Cl)c(CCN3CC[C@@H](NCc4cc5c(cn4)OCS5)[C@H](O)C3)c2n1`, the IC50 is 0.13 µM.

On to `COc1ncc(-c2ccc3nccc(-c4ccncc4)c3c2)cc1NS(=O)(=O)C1CC1`, for which the half-maximal inhibitory concentration (IC50) is 0.32 µM.

For the molecule `Cc1nc2c(-c3n[nH]c(-c4ccccc4N)n3)cccn2c1C`, the IC50 was 4 µM.

Take `Fc1ccc(OC2CC(NCc3cccc4cn[nH]c34)C2)cc1C(F)(F)F` (stereo not drawn): the IC50 is 0.79 µM.

`COc1ccc(-c2cnc(NC(=O)c3ccc(F)cc3)n2C)cc1`: the IC50 is 2.5 µM.

`CNS(=O)(=O)c1ccccc1Nc1nc(Nc2cc(C)nn2C)ncc1Cl`: the IC50 is 0.4 µM.

Turning to `COc1ccc2nccc(NC(=O)C3(OC)CCN(CC(O)c4ccc5c(c4)OCCO5)CC3)c2n1` (stereo not drawn), the IC50 was 0.25 µM.

Turning to `Nc1nccc(-c2csc(Nc3ccc(Cl)cc3)n2)n1`, the IC50 was 1.3 µM.

Take `CC(C)N(C(=O)CN1C(=O)C(N)C(=O)N(c2ccccc2)c2ccccc21)c1ccccc1` (stereo not drawn): the IC50 is 0.32 µM.

`Cc1nc2nc(C)c(Cc3ccc(C(C)C)cc3)c(=O)n2[nH]1`: the IC50 is 0.5 µM.

On to `CCCc1nc2nc(N)nc(N)c2cc1CC`, for which the IC50 is 0.32 µM.

In the case of `O=c1oc2ccccc2n1C1CCN(Cc2ccccc2-c2cccnc2)CC1`, the IC50 is 0.5 µM.

`c1ccc2[nH]c(-c3ccc(N4CCCC4)nc3)nc2c1`: the IC50 is 1 µM.

Consider `COc1ccc(OC)c2c(=O)c(Cc3ccccc3)c(C)[nH]c12`, for which the IC50 was 0.2 µM.

On to `NC(N)=Nc1nc(-c2ccc(NC(N)=NCCN3CCCC3)cc2)cs1`, for which the IC50 was > 50 µM (inactive).

Turning to `O=C1CN(C2CCCc3c(OCc4ccncc4)cccc32)C(=O)N1C1CCCCC1` (stereo not drawn), the IC50 was 0.25 µM.

In the case of `O=C(CN1CCN(S(=O)(=O)c2cccc([N+](=O)[O-])c2)CC1)Nc1ccc(Oc2ccccc2)cc1`, the IC50 is 2.5 µM.

Consider `COc1ccc(NS(=O)(=O)c2cc(NC(=O)c3ccc([N+](=O)[O-])s3)ccc2OC)cc1`, for which the IC50 was 0.063 µM.

With `CS(=O)(=O)c1cccc(CNC(=O)c2cncc(N3CCN(c4ccc(F)cc4)CC3)c2)c1`, the IC50 is 0.63 µM.

For the molecule `Cc1cc(-c2cccc3ccccc23)nc2nc(N)nc(N)c12`, the IC50 is 40 µM.

For the molecule `COc1cccc(-c2c(C)nn(-c3nc(N)nc(-c4ccccn4)n3)c2N)c1`, the IC50 is 2.5 µM.

As for `COc1ccc(-c2cc(C)no2)cc1S(=O)(=O)Nc1ccc(F)c(Cl)c1`, the IC50 is 1.6 µM.

Turning to `NC(=O)c1ncccc1Nc1nc(NC2CCC(O)CC2)ncc1Br` (stereo not drawn), the IC50 was 1.6 µM.

As for `O=C(COc1nn(-c2ccccc2)c2ncccc12)NCc1ccccc1`, the IC50 is 13 µM.

For `CC(C)(C)Nc1nc(Nc2ccc3c(c2)CS(=O)(=O)C3)nc2[nH]ccc12`, the IC50 was 1 µM.

Regarding `O=C(COc1ccccc1)Nc1ccccc1C(=O)Nc1nccs1`, the IC50 was > 50 µM (inactive).

With `O=C(NCCc1cccnc1)c1ccc(-c2ccccc2F)o1`, the IC50 was 0.1 µM.

In the case of `O=C(NC1C(=O)N(c2ccccc2)C1c1cccnc1)c1ccc(Cl)s1` (stereo not drawn), the IC50 was 0.032 µM.

In the case of `O=C(CN(Cc1ccccn1)Cc1ccccn1)NC1Cc2ccccc2C1`, the IC50 was 5 µM.
